Measured values: US20240350402A1, “TOPICAL DRUG TREATMENT TO PREVENT OR REDUCE CORNEAL SCARRING” (The Cleveland Clinic Foundation, priority 2021, published 2024)

Key:
[1] = system: rabbit corneas after Descemetorhexis; test: Descemetorhexis (DMR) model: standardized slit lamp photographs, ImageJ intensity of central opacity; assay type: in vivo; settings: one month; for intensity of opacity in a 2.5 mm circle of central cornea (ImageJ) vs DMR vehicle or DMR oral losartan groups: P<0.05
Experimental: All procedures involving animals were approved by the Institutional Animal Care and Use Committee (IACUC) at the Cleveland Clinic Foundation (Cleveland, OH, USA) and the Animal Care and Use Review Office of the Department of the Army (Fort Detrick, MD). All animals were treated in accordance with the tenets of the ARVO Statement for the Use of Animals in Ophthalmic and Vision Research. Twenty-eight 10- to 15-week-old female New Zealand White rabbits weighing 2.5 to 3.0 kg each were included in this study—four in each group.
(§1) The rabbits had general anaesthesia with 30 mg/kg ketamine hydrochloride and 5 mg/kg xylazine by IM injection. In addition, topical proparacaine hydrochloride 1% (Alcon, Ft Worth, TX, USA) was applied to each eye prior to the surgery. One cornea selected at random in each group either had sham surgery without Descemetorhexis or an 8 mm diameter central Descemet's membrane-endothelial excision. The time point of one month after surgery was selected for the study because myofibroblasts and fibrosis in the posterior cornea was maximal at this time point in a prior time course Descemetorhexis study (Sampaio et al., 2021). Descemetorhexis was performed as described in the prior study (Sampaio et al., 2021). Briefly, a wire lid speculum was placed into one eye of each rabbit and an 8 mm diameter gentian violet circle was marked on the epithelial surface for reference. A limbal entry incision was created with a 1.6 mm blade (Bausch and Lomb, Rochester, NY, USA) and 0.3 ml Healon OVD (Abbott Medical Optics Inc. Santa Ana, CA, USA) was injected into the anterior chamber. A reversed Sinskey hook (Katena, Denville, New Jersey, USA) was placed into the anterior chamber and an 8 mm diameter disc of Descemet's membrane and endothelium was excised underlying the 8 mm area previously marked on the anterior corneal surface, without a subsequent endothelial corneal transplant. No removal of Descemet's membrane or endothelium was performed in unwounded sham surgery eyes. Remaining Healon OVD was removed with a Simcoe irrigation and aspiration cannula (Bausch & Lomb, Storz, Rochester, NY, USA) and the anterior chamber was filled with balanced salt solution (BSS). A single 10-0 nylon suture was placed at the incision site to prevent leakage from the anterior chamber. One drop of ciprofloxacin (Alcon, Ft. Worth, TX, USA) was applied to the corneas immediately after surgery and four times a day until the epithelium entry wound healed at approximately 2 days.
(§2) The oral solution was prepared with 5 ml distilled water+50 ml ora-plus (suspending vehicle—Perrigo, Dublin, Ireland)+45 ml Ora-sweet (flavored syrup vehicle—Perrigo).
After one month of treatment, study eyes were dilated with two drops of 1% tropicamide (Akom Co., Lake Forest, IL) for thirty minutes. After general anaesthesia, the study eye in each rabbit had standardized slit lamp photographs at 20× magnification with a Haag Streit (Mason, OH, USA) BX900 slit lamp photography system using identical lighting position and intensity. For each study eye, the intensity of a 2.5 mm diameter central circle (not including the light reflex, examples shown in FIG. 1) was determined using ImageJ 1.53a analysis software. Statistical comparisons of the intensity of opacity was performed using the Kruskal-Wallis test followed by post-hoc Dunn's-Bonferroni test and p<0.05 was considered statistically significant

collagen type IV = test: DMR model: IHC collagen type IV intensity in posterior stroma (ImageJ); assay type: in vivo, rabbit; settings: one month
Experimental: as §1, §2
(§3) Duplex immunohistochemistry (IHC) was performed after masking of slides by a researcher not involved in the analysis using previously described methods (de Oliveira et al., 2021) using primary antibodies (Table 2) confirmed by western blotting and IHC to recognize rabbit antigens or isotypic control antibodies (ThermoFisher Scientific, Waltham, MA), and secondary fluorescent tagged antibodies (Table 3).
The AB769 (Millipore, Temecula CA) collagen type IV antibody used in this study was generated against purified human and bovine collagen type IV, affinity purified with human and bovine collagen type IV crosslinked to agarose and cross-absorbed by the manufacturer with human and bovine collagens type I, II, III, V and VI to eliminate cross-reactivity. […]
Collagen type IV intensity in immunohistochemistry images was quantitated in 0.75 W×0.5H rectangles of posterior stroma tangent to the posterior corneal surface using ImageJ on 7.62 cm wide×5.69 cm height and 300 DPI images generated using standardized microscopic illumination settings applied to all sections. The quantitation rectangles were positioned such that the posterior side of the rectangle was tangent to the posterior corneal surface just anterior to Descemet's membrane, if one was present, in the analysed specimens. […]

[2] = system: α-smooth muscle actin (SMA) myofibroblast marker; test: DMR model: IHC for SMA and keratocan, area of SMA-positive posterior fibrosis (QuPath); assay type: in vivo, rabbit
Experimental: as §1, §2
At one month after surgery and treatment, an intravenous injection of 100 mg/kg Beuthanasia (Shering-Plough, Kenilworth, NJ) was given for euthanasia with the animals under general anaesthesia. Sharp Westcott scissors (Fairfield, CT, USA) and 0.12 forceps (Storz, St. Louis, MO) were used to remove the corneo-scleral rims of the sham unwounded and DMR eyes without touching the cornea. Each cornea was set in the center of a 24×24×5 mm mold (Fisher Scientific, Pittsburgh, PA, USA) and the mold was filled in liquid OCT compound (Sakura Finetek, Torrance, CA, USA). The molds and cornea-scleral rims were quick frozen on dry ice and stored at −80° C. until sections were cut.
Each OCT block was bisected in the exact center of the cornea, and 8 μm thick transverse sections were cut from the central cornea within the previous DMR injury or unwounded sham surgery corneas with a cryostat (HM 505M; Micron GmbH, Walldorf, Germany) and three sections per slide were placed on 25 mm×75 mm×1 mm Superfrost Plus microscope slides (Fisher Scientific, Pittsburgh, PA, USA). Slides were maintained at −20° C. until immunohistochemistry.
as §3
The area of the SMA-positive posterior fibrotic stroma was quantitated with the original groups masked to the analyzer by standardized photography with a 10× objective on a Leica DM6B upright microscope equipped with an automated stage and Leica 7000 T camera using the LAS X software (Leica Microsystems, GmbH, Wetzlar, Germany). […]

[3] = topical losartan and oral losartan

CCCCc1nc(Cl)c(CO)n1Cc1ccc(-c2ccccc2-c2nn[nH]n2)cc1 [losartan]
intensity of opacity in the central cornea, topical vs topical and oral losartan ([1]; DMR): no significant difference | scarring fibrosis and neovascularization compared to DMR vehicle control corneas ([1]; DMR, oral 5 mg/kg three times a day): no difference | changes in corneal opacity and neovascularization vs topical losartan alone ([1]; DMR, topical 0.4 mg/ml six times per day + oral 5 mg/kg three times a day): not different | scarring fibrosis (slit lamp) ([1]; DMR, topical 0.4 mg/ml six times per day): overall decrease | intensity of opacity in a 2.5 mm circle of central cornea (ImageJ) vs DMR vehicle or DMR oral losartan groups ([1]; DMR, topical losartan and oral losartan): significant decrease | corneal neovascularization after Descemetorhexis ([1]; DMR, topical losartan): reduced | intensity of opacity in a 2.5 mm circle of central cornea (ImageJ) vs DMR vehicle or DMR oral losartan groups ([1]; DMR, topical losartan): significant decrease | transparency of sham unwounded corneas ([1]; 0.4 mg/ml topical losartan six times per day): no effect | transparency of sham unwounded corneas ([1]; oral 5 mg/kg losartan three times per day): no effect | collagen type IV production in the posterior stroma (collagen type IV; oral losartan alone): no significant effect | collagen type IV localization in posterior stroma (IHC) (collagen type IV; topical losartan alone): primarily detected adjacent to the posterior surfaces | collagen type IV vs DMR corneas treated with topical losartan alone (collagen type IV; [3]): not different | posterior stromal collagen type IV production compared to topical vehicle and oral vehicle (ImageJ intensity) (collagen type IV; [3]): significantly decreased | posterior stromal collagen type IV production compared to topical vehicle and oral vehicle (ImageJ intensity) (collagen type IV; topical losartan): significantly decreased | mean area of the SMA-positive posterior fibrotic area among DMR groups ([2]; DMR, oral losartan alone, one month): highest | mean SMA-positive posterior fibrotic area compared to the other DMR groups ([2]; DMR, topical 0.4 mg/ml six times a day): significantly lower | SMA-positive fibrotic zone in the posterior cornea ([2]; DMR, topical 0.4 mg/ml six times per day, one month): marked decrease | SMA-positive fibrosis in the posterior cornea ([2]; DMR, topical six times per day and oral three times per day, one month): decrease | SMA-positive posterior corneal fibrosis in uninjured corneas ([2]; oral losartan three times a day): did not develop SMA-positive posterior corneal fibrosis | SMA-positive posterior corneal fibrosis in uninjured corneas ([2]; topical losartan six times a day): did not develop SMA-positive posterior corneal fibrosis
